Assay results taken from ChEMBL document CHEMBL3046407, “Toxicity of monoterpenes against larvae and adults of Colorado potato beetle, Leptinotarsa decemlineata Say (Coleoptera: Chrysomelidae)” (2007).

Key:
Format in all cases: functional
[1] = tested on: Leptinotarsa decemlineata; experiment: Insecticidal activity against second-instar larval stage of Leptinotarsa decemlineata infested potato leaves assessed as mortality at 20 ul after 96 hr (reference value: 3.3 +/- 3.3%)
[2] = tested on: Leptinotarsa decemlineata; experiment: Insecticidal activity against first-instar larval stage of Leptinotarsa decemlineata infested potato leaves assessed as mortality at 20 ul after 48 hr relative to control
[3] = tested on: Leptinotarsa decemlineata; experiment: Insecticidal activity against adult Leptinotarsa decemlineata infested potato leaves assessed as mortality at 10 ul after 12 hr relative to control
[4] = tested on: Leptinotarsa decemlineata; experiment: Insecticidal activity against first-instar larval stage of Leptinotarsa decemlineata infested potato leaves assessed as mortality at 20 ul after 96 hr relative to control
[5] = tested on: Leptinotarsa decemlineata; experiment: Insecticidal activity against first-instar larval stage of Leptinotarsa decemlineata infested potato leaves assessed as mortality at 20 ul after 24 hr relative to control
[6] = tested on: Leptinotarsa decemlineata; experiment: Insecticidal activity against third-instar larval stage of Leptinotarsa decemlineata infested potato leaves assessed as mortality at 20 ul after 24 hr relative to control
[7] = tested on: Leptinotarsa decemlineata; experiment: Insecticidal activity against adult Leptinotarsa decemlineata infested potato leaves assessed as mortality at 10 ul after 24 hr relative to control
[8] = tested on: Leptinotarsa decemlineata; experiment: Insecticidal activity against first-instar larval stage of Leptinotarsa decemlineata infested potato leaves assessed as mortality at 10 ul after 24 hr relative to control
[9] = tested on: Leptinotarsa decemlineata; experiment: Insecticidal activity against adult Leptinotarsa decemlineata infested potato leaves assessed as mortality at 10 ul after 48 hr relative to control
[10] = tested on: Leptinotarsa decemlineata; experiment: Insecticidal activity against second-instar larval stage of Leptinotarsa decemlineata infested potato leaves assessed as mortality at 10 ul after 48 hr (reference value: 3.3 +/- 3.3%)
[11] = tested on: Leptinotarsa decemlineata; experiment: Insecticidal activity against adult Leptinotarsa decemlineata infested potato leaves assessed as mortality at 10 ul after 96 hr relative to control
[12] = tested on: Leptinotarsa decemlineata; experiment: Insecticidal activity against adult Leptinotarsa decemlineata infested potato leaves assessed as mortality at 20 ul after 12 hr relative to control
[13] = tested on: Leptinotarsa decemlineata; experiment: Insecticidal activity against adult Leptinotarsa decemlineata infested potato leaves assessed as mortality at 20 ul after 96 hr relative to control
[14] = tested on: Leptinotarsa decemlineata; experiment: Insecticidal activity against second-instar larval stage of Leptinotarsa decemlineata infested potato leaves assessed as mortality at 20 ul after 24 hr (reference value: 3.3 +/- 3.3%)
[15] = tested on: Leptinotarsa decemlineata; experiment: Insecticidal activity against second-instar larval stage of Leptinotarsa decemlineata infested potato leaves assessed as mortality at 10 ul after 24 hr (reference value: 3.3 +/- 3.3%)
[16] = tested on: Leptinotarsa decemlineata; experiment: Insecticidal activity against second-instar larval stage of Leptinotarsa decemlineata infested potato leaves assessed as mortality at 10 ul after 12 hr relative to control
[17] = tested on: Leptinotarsa decemlineata; experiment: Insecticidal activity against adult Leptinotarsa decemlineata infested potato leaves assessed as mortality at 20 ul after 48 hr relative to control
[18] = tested on: Leptinotarsa decemlineata; experiment: Insecticidal activity against second-instar larval stage of Leptinotarsa decemlineata infested potato leaves assessed as mortality at 10 ul after 96 hr (reference value: 3.3 +/- 3.3%)
[19] = tested on: Leptinotarsa decemlineata; experiment: Insecticidal activity against third-instar larval stage of Leptinotarsa decemlineata infested potato leaves assessed as mortality at 10 ul after 48 hr (reference value: 3.3 +/- 3.3%)
[20] = tested on: Leptinotarsa decemlineata; experiment: Insecticidal activity against first-instar larval stage of Leptinotarsa decemlineata infested potato leaves assessed as mortality at 10 ul after 96 hr relative to control
[21] = tested on: Leptinotarsa decemlineata; experiment: Insecticidal activity against first-instar larval stage of Leptinotarsa decemlineata infested potato leaves assessed as mortality at 10 ul after 48 hr relative to control
[22] = tested on: Leptinotarsa decemlineata; experiment: Insecticidal activity against third-instar larval stage of Leptinotarsa decemlineata infested potato leaves assessed as mortality at 20 ul after 48 hr (reference value: 3.3 +/- 3.3%)
[23] = tested on: Leptinotarsa decemlineata; experiment: Insecticidal activity against third-instar larval stage of Leptinotarsa decemlineata infested potato leaves assessed as mortality at 20 ul after 96 hr (reference value: 3.3 +/- 3.3%)
[24] = tested on: Leptinotarsa decemlineata; experiment: Insecticidal activity against second-instar larval stage of Leptinotarsa decemlineata infested potato leaves assessed as mortality at 20 ul after 48 hr (reference value: 3.3 +/- 3.3%)
[25] = tested on: Leptinotarsa decemlineata; experiment: Insecticidal activity against adult Leptinotarsa decemlineata infested potato leaves assessed as mortality at 20 ul after 24 hr relative to control
[26] = tested on: Leptinotarsa decemlineata; experiment: Insecticidal activity against third-instar larval stage of Leptinotarsa decemlineata infested potato leaves assessed as mortality at 10 ul after 12 hr relative to control
[27] = tested on: Leptinotarsa decemlineata; experiment: Insecticidal activity against third-instar larval stage of Leptinotarsa decemlineata infested potato leaves assessed as mortality at 10 ul after 24 hr relative to control
[28] = tested on: Leptinotarsa decemlineata; experiment: Insecticidal activity against first-instar larval stage of Leptinotarsa decemlineata infested potato leaves assessed as mortality at 10 ul after 12 hr relative to control
[29] = tested on: Leptinotarsa decemlineata; experiment: Insecticidal activity against third-instar larval stage of Leptinotarsa decemlineata infested potato leaves assessed as mortality at 10 ul after 96 hr (reference value: 3.3 +/- 3.3%)
[30] = tested on: Leptinotarsa decemlineata; experiment: Insecticidal activity against second-instar larval stage of Leptinotarsa decemlineata infested potato leaves assessed as mortality at 20 ul after 12 hr relative to control
[31] = tested on: Leptinotarsa decemlineata; experiment: Insecticidal activity against first-instar larval stage of Leptinotarsa decemlineata infested potato leaves assessed as mortality at 20 ul after 12 hr relative to control
[32] = tested on: Leptinotarsa decemlineata; experiment: Insecticidal activity against third-instar larval stage of Leptinotarsa decemlineata infested potato leaves assessed as mortality at 20 ul after 12 hr relative to control

Structure (SMILES)	mortality [1] [%]	mortality [2] [%]	mortality [3] [%]	mortality [4] [%]	mortality [5] [%]	mortality [6] [%]	mortality [7] [%]	mortality [8] [%]	mortality [9] [%]	mortality [10] [%]	mortality [11] [%]	mortality [12] [%]	mortality [13] [%]	mortality [14] [%]	mortality [15] [%]	mortality [16] [%]	mortality [17] [%]	mortality [18] [%]	mortality [19] [%]	mortality [20] [%]	other results
C=CC(C)(O)CCC=C(C)C (centres undefined) [LINALOOL]	100	100	16.7	100	93.3	33.3	73.3	53.3	83.3	76.7	90	30	100	93.3	73.3	20	100	100	20	100	mortality [21]: 63.3%; mortality [22]: 36.7%; mortality [23]: 40%; mortality [24]: 100%; mortality [25]: 73.3%; mortality [26]: 3.3%; mortality [27]: 13.3%; mortality [28]: 26.7%; mortality [29]: 23.3%; mortality [30]: 36.7%; mortality [31]: 40%; mortality [32]: 6.7%
C=C(C)[C@@H]1CC[C@@H](C)C(=O)C1 [DIHYDROCARVONE]	100	70	6.7	80	50	46.7	30	33.3	53.3	76.7	63.3	0	80	83.3	63.3	23.3	63.3	83.3	16.7	40	mortality [21]: 33.3%; mortality [22]: 60%; mortality [23]: 76.7%; mortality [24]: 86.7%; mortality [25]: 23.3%; mortality [26]: 0%; mortality [27]: 16.7%; mortality [28]: 0%; mortality [29]: 23.3%; mortality [30]: 36.7%; mortality [31]: 26.7%; mortality [32]: 16.7%
C=C(C)C1CC=C(C)C(=O)C1 (centres undefined) [CARVONE]	90	43.3	0	56.7	30	86.7	26.7	43.3	66.7	63.3	93.3	3.3	100	83.3	53.3	33.3	100	63.3	13.3	63.3	mortality [21]: 43.3%; mortality [22]: 90%; mortality [23]: 90%; mortality [24]: 86.7%; mortality [25]: 36.7%; mortality [26]: 6.7%; mortality [27]: 13.3%; mortality [28]: 16.7%; mortality [29]: 16.7%; mortality [30]: 53.3%; mortality [31]: 10%; mortality [32]: 23.3%
C=CC(C)CCC=C(C)C (stereo not drawn) [BETA-CITRONELLENE]	100	100	40	100	100	80	73.3	86.7	73.3	100	76.7	53.3	90	100	96.7	43.3	83.3	100	100	100	mortality [21]: 100%; mortality [22]: 93.3%; mortality [23]: 93.3%; mortality [24]: 100%; mortality [25]: 76.7%; mortality [26]: 80%; mortality [27]: 93.3%; mortality [28]: 30%; mortality [29]: 100%; mortality [30]: 66.7%; mortality [31]: 76.7%; mortality [32]: 50%
CC1=CCC(O)(C(C)C)CC1 (centres undefined) [TERPINEOL]	100	100	3.3	100	86.7	23.3	76.7	40	93.3	100	100	16.7	100	100	83.3	33.3	80	100	23.3	100	mortality [21]: 73.3%; mortality [22]: 26.7%; mortality [23]: 40%; mortality [24]: 100%; mortality [25]: 43.3%; mortality [26]: 6.7%; mortality [27]: 16.7%; mortality [28]: 0%; mortality [29]: 23.3%; mortality [30]: 60%; mortality [31]: 40%; mortality [32]: 3.3%
C/C=C(C)/C=C/C=C(C)C [ALLO-OCIMENE]	60	46.7	3.3	56.7	33.3	23.3	3.3	33.3	3.3	50	3.3	3.3	23.3	43.3	40	23.3	20	66.7	0	56.7	mortality [21]: 46.7%; mortality [22]: 23.3%; mortality [23]: 26.7%; mortality [24]: 53.3%; mortality [25]: 20%; mortality [26]: 0%; mortality [27]: 0%; mortality [28]: 13.3%; mortality [29]: 0%; mortality [30]: 30%; mortality [31]: 16.7%; mortality [32]: 23.3%
CC(C)=CCCC(C)CCO (centres undefined) [CITRONELLOL]	26.7	16.7	13.3	26.7	3.3	3.3	13.3	40	13.3	46.7	13.3	0	0	20	40	6.7	0	50	23.3	50	mortality [21]: 46.7%; mortality [22]: 6.7%; mortality [23]: 16.7%; mortality [24]: 23.3%; mortality [25]: 0%; mortality [26]: 20%; mortality [27]: 20%; mortality [28]: 6.7%; mortality [29]: 26.7%; mortality [30]: 16.7%; mortality [31]: 0%; mortality [32]: 3.3%
